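Step 1: Grow cells in 96-well plates. Step 2: Expose to compound for 48 hours at 5 concentrations. Step 3: Interpolate endpoints linearly; if unreached, use highest concentration. The concentration for 50% growth inhibition is given as GI50.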 Activity calls are given as the source filed them. Rule as the data show it: active = GI50 up to about 1.1 µM and inactive = higher.
Assays:
Test in all cases: NCI-60 cell line screen, 48 h
[1] = tested on: Malme-3M
[2] = tested on: OVCAR-5
[3] = tested on: SNB-19
[4] = tested on: A498
[5] = tested on: K562
[6] = tested on: SF-268
[7] = tested on: 786-0
[8] = tested on: M14
[9] = tested on: EKVX
[10] = tested on: KM-20L2
[11] = tested on: SNB-75
[12] = tested on: IGROV-1
[13] = tested on: SK-OV-3
[14] = tested on: HCT-15
[15] = tested on: HT-29
[16] = tested on: RPMI-8226
[17] = tested on: NCI/ADR-RES

| Structure (SMILES) | GI50 [1] | GI50 [2] | GI50 [3] | GI50 [4] | GI50 [5] | GI50 [6] | GI50 [7] | GI50 [8] | GI50 [9] | GI50 [10] | GI50 [11] | GI50 [12] | GI50 [13] | GI50 [14] | GI50 [15] | GI50 [16] | GI50 [17] |
| --- | --- | --- | --- | --- | --- | --- | --- | --- | --- | --- | --- | --- | --- | --- | --- | --- | --- |
| COc1ccccc1NC(=O)C1=C(C)NC(C)=C(C(=O)Nc2ccccc2OC)C1c1ccccc1Cl | > 100 µM (inactive) | > 100 µM (inactive) | > 100 µM (inactive) | > 100 µM (inactive) | 32.7 µM (inactive) | > 100 µM (inactive) | > 100 µM (inactive) | 91 µM (inactive) | 53.5 µM (inactive) | 56.5 µM (inactive) | 46.9 µM (inactive) | > 100 µM (inactive) | > 100 µM (inactive) | 56.2 µM | 64.1 µM (inactive) | 30.7 µM (inactive) |  |
| CC(C)(C)C1C=C(Sc2ccccc2)C(=O)O1 (stereo not drawn) | 97.5 µM (inactive) | 34.2 µM (inactive) | 57.9 µM (inactive) | 41.9 µM (inactive) | 49.3 µM (inactive) | 37.2 µM (inactive) | 68.9 µM (inactive) | 62.1 µM (inactive) | 47 µM (inactive) | 39.1 µM (inactive) | 22.8 µM (inactive) | 48.9 µM (inactive) | 58.9 µM (inactive) | 43.3 µM | 49.8 µM (inactive) | 36 µM (inactive) |  |
| COc1ccc(N2C(=O)/C(=C(\C)c3cc4ccccc4oc3=O)N=C2c2cc([N+](=O)[O-])ccc2Cl)cc1 | 45.2 µM (inactive) | > 100 µM (inactive) | 32.7 µM (inactive) | 24 µM (inactive) | 10.8 µM (inactive) | 28.7 µM (inactive) |  | 23.6 µM (inactive) | > 100 µM (inactive) | 29.7 µM (inactive) | 33.3 µM (inactive) | 43.3 µM (inactive) | 57.7 µM (inactive) |  | 35.7 µM (inactive) | 26.5 µM (inactive) |  |
| CCN(CC)CCCC(C)Nc1c2ccc(Cl)cc2nc2cc(Cl)ccc12 (stereo not drawn) | 12.2 µM (inactive) | 6.7 µM (inactive) | 17 µM (inactive) | 8.67 µM (inactive) | 2.21 µM (inactive) | 4.9 µM (inactive) |  |  | 9.73 µM (inactive) | 3.42 µM (inactive) | 7.03 µM (inactive) | 4.76 µM (inactive) | 5.6 µM (inactive) | 3.04 µM | 2.47 µM (inactive) | 2.23 µM (inactive) | 3.44 µM (inactive) |
| Cc1c(C)c2ccc(OC(C)C(=O)O)cc2oc1=O (stereo not drawn) | > 100 µM (inactive) |  | > 100 µM (inactive) | > 100 µM (inactive) | > 100 µM (inactive) | > 100 µM (inactive) | > 100 µM (inactive) | > 100 µM (inactive) | > 100 µM (inactive) | > 100 µM (inactive) | > 100 µM (inactive) | > 100 µM (inactive) | > 100 µM (inactive) |  | > 100 µM (inactive) | > 100 µM (inactive) |  |
| Clc1cccc(N2CCN(CCCN3CCc4c([nH]c5ccccc45)C3c3cccnc3)CC2)c1 (stereo not drawn) | 2.54 µM (inactive) | 7.66 µM (inactive) | 20.6 µM (inactive) | 10.4 µM (inactive) | 3.78 µM (inactive) |  | 3.29 µM (inactive) | 2.01 µM (inactive) | 15.3 µM (inactive) | 4.28 µM (inactive) | 11 µM (inactive) | 29.6 µM (inactive) | 14.6 µM (inactive) | 8.81 µM | 3.89 µM (inactive) | 6.15 µM (inactive) |  |
| O=C1C(c2ccccc2)=C(c2ccccc2)C(c2ccccc2)/C1=C1\C(=O)C(c2ccccc2)=C(c2ccccc2)C1c1ccccc1 (stereo not drawn) | > 100 µM (inactive) | > 100 µM (inactive) |  | > 100 µM (inactive) |  | > 100 µM (inactive) | > 100 µM (inactive) | 41.9 µM (inactive) | > 100 µM (inactive) | > 100 µM (inactive) | > 100 µM (inactive) | > 100 µM (inactive) | > 100 µM (inactive) | > 100 µM | > 100 µM (inactive) | > 100 µM (inactive) |  |
| COc1ccc(/N=N/C(C(=O)c2ccccc2)C(=O)c2ccccc2)cc1 | 24.9 µM (inactive) | 33.8 µM (inactive) | 17.7 µM (inactive) | 35.7 µM (inactive) | 19.1 µM (inactive) | 23.8 µM (inactive) | 19.9 µM (inactive) | 15.3 µM (inactive) | 21.3 µM (inactive) | 27.2 µM (inactive) | 20.6 µM (inactive) | 34.7 µM (inactive) | 45.9 µM (inactive) | 15.1 µM | 23 µM (inactive) | 13.4 µM (inactive) |  |
| O=C1C2=C(C3=NCCc4c[nH]c1c43)c1c(cc(Br)c(O)c1Br)CCN2 |  | 25.2 µM (inactive) | 17.9 µM (inactive) | 20.2 µM (inactive) | 15 µM (inactive) | 9.25 µM (inactive) |  |  | 17.8 µM (inactive) | 5.07 µM (inactive) | 16.3 µM (inactive) | 13.6 µM (inactive) | 7.41 µM (inactive) | 11.5 µM | 6.59 µM (inactive) | 5.01 µM (inactive) | 14.5 µM (inactive) |
| CN1COCN/C1=N/C#N | > 100 µM (inactive) | > 100 µM (inactive) | > 100 µM (inactive) | > 100 µM (inactive) | > 100 µM (inactive) | > 100 µM (inactive) |  | > 100 µM (inactive) | > 100 µM (inactive) | > 100 µM (inactive) | > 100 µM (inactive) | > 100 µM (inactive) | > 100 µM (inactive) | > 100 µM | > 100 µM (inactive) | > 100 µM (inactive) |  |
| CC(=O)Nc1ccc(SC#N)c2c(NC(C)=O)cccc12 | > 100 µM (inactive) | > 100 µM (inactive) | > 100 µM (inactive) | > 100 µM (inactive) | 34 µM (inactive) | 98.4 µM (inactive) | > 100 µM (inactive) | > 100 µM (inactive) | > 100 µM (inactive) | > 100 µM (inactive) | > 100 µM (inactive) | > 100 µM (inactive) | > 100 µM (inactive) | 53.8 µM | > 100 µM (inactive) | 24.4 µM (inactive) |  |
| C[C@]12CCC(=O)C(O)=C1CCC2=O | > 100 µM (inactive) | > 100 µM (inactive) | > 100 µM (inactive) | > 100 µM (inactive) |  | > 100 µM (inactive) | > 100 µM (inactive) | > 100 µM (inactive) | > 100 µM (inactive) | > 100 µM (inactive) | > 100 µM (inactive) | > 100 µM (inactive) | > 100 µM (inactive) | > 100 µM | > 100 µM (inactive) | > 100 µM (inactive) |  |
| CCOC(=O)C1(Br)S(=O)(=O)OCCOS1(=O)=O | > 100 µM (inactive) | > 100 µM (inactive) | > 100 µM (inactive) | > 100 µM (inactive) | > 100 µM (inactive) | > 100 µM (inactive) | > 100 µM (inactive) | > 100 µM (inactive) | > 100 µM (inactive) | > 100 µM (inactive) | > 100 µM (inactive) | > 100 µM (inactive) | > 100 µM (inactive) | > 100 µM | > 100 µM (inactive) | > 100 µM (inactive) |  |
| O=C1C[S+]([O-])c2ccccc2N1 (stereo not drawn) | > 100 µM (inactive) | > 100 µM (inactive) | > 100 µM (inactive) | > 100 µM (inactive) | > 100 µM (inactive) | 71.8 µM (inactive) | > 100 µM (inactive) | > 100 µM (inactive) | > 100 µM (inactive) | > 100 µM (inactive) | > 100 µM (inactive) | > 100 µM (inactive) | > 100 µM (inactive) | > 100 µM | > 100 µM (inactive) | 45.8 µM (inactive) |  |
| O=C(O)C12CC3CC(CC(F)(C3)C1)C2 | > 100 µM (inactive) | > 100 µM (inactive) |  | > 100 µM (inactive) | > 100 µM (inactive) |  | > 100 µM (inactive) | > 100 µM (inactive) | > 100 µM (inactive) | > 100 µM (inactive) | 65.5 µM (inactive) | > 100 µM (inactive) | > 100 µM (inactive) |  | > 100 µM (inactive) | > 100 µM (inactive) |  |
| Cc1cccc(C)c1N1C(=O)C(=O)C(c2nc3ccccc3s2)/C(=N/NC(=O)c2ccccc2O)C1=O (stereo not drawn) | 33 µM (inactive) | 36.9 µM (inactive) | 10.7 µM (inactive) | 28.6 µM (inactive) | 3.8 µM (inactive) | 6.75 µM (inactive) | 13.2 µM (inactive) | 10.1 µM (inactive) | 20.6 µM (inactive) | 32.6 µM (inactive) | 1.05 µM (active) | 3.26 µM (inactive) | 50.7 µM (inactive) | 14.7 µM | 51.5 µM (inactive) | 12.7 µM (inactive) |  |
| CC1CCCC2(O1)OC1CC(=O)OC1C1=C2C(=O)c2ccccc2C1=O (stereo not drawn) | 2.45 µM (inactive) | 19.9 µM (inactive) | 15.6 µM (inactive) | 17.7 µM (inactive) | 0.63 µM (active) | 4.02 µM (inactive) | 2.14 µM (inactive) | 2.79 µM (inactive) | 3.87 µM (inactive) | 3.98 µM (inactive) | 11.2 µM (inactive) | 2.65 µM (inactive) | 16.4 µM (inactive) | 2.8 µM | 2.42 µM (inactive) | 1.22 µM (inactive) |  |
| CCCCCCCCCCCCCCCC(=O)N[C@H]1CCc2cc(OC)c(OC)c(OC)c2-c2ccc(SC)c(=O)cc21 | 0.762 µM (active) | 15.2 µM (inactive) | 0.973 µM (active) | 0.692 µM (active) | 0.325 µM (active) | 0.54 µM (active) | 2.36 µM (inactive) | 0.279 µM (active) | 0.454 µM (active) | 0.186 µM (active) | 0.238 µM (active) | 2.58 µM (inactive) | 1.67 µM (inactive) | 1.15 µM | 0.253 µM (active) | 3.64 µM (inactive) |  |

From ChEMBL document CHEMBL1201862, “PubChem BioAssay data set” (2004)
